Experimental data published in patent US20230064809A1, “SUBSTITUTED AMINOQUINOLONES AS DGKALPHA INHIBITORS FOR IMMUNE ACTIVATION” (Bayer Aktiengesellschaft, priority 2019, published 2023).

Target: T1, DGKα (Homo sapiens, UniProt P23743)
Experiment: not given
Conditions: literature report; cited from earlier work
Target sequence in this assay (P23743 whole entry, species assumed): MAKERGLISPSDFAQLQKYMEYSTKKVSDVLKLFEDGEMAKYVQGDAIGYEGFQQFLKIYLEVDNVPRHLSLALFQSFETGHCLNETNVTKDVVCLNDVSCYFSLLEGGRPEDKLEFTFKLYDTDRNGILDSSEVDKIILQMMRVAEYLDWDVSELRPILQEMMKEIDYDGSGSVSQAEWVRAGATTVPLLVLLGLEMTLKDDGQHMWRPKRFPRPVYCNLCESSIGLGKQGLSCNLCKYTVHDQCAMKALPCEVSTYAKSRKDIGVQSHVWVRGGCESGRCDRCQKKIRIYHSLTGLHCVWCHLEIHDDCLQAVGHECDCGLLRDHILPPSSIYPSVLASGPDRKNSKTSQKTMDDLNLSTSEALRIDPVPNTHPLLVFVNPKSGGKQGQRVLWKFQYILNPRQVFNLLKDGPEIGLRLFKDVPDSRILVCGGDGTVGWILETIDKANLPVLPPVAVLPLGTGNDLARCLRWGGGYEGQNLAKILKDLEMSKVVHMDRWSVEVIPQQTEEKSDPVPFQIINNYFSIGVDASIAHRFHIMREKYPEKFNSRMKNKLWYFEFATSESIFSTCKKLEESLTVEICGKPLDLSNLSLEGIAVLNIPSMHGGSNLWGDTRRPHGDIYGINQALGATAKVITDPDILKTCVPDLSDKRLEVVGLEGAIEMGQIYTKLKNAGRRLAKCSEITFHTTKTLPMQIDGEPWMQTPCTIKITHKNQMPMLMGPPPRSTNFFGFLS

| SMILES | inhibitory activity on DGKα |
| --- | --- |
| Cc1ccc2c(C(=O)CN3CCN(C(=O)c4ccco4)CC3)c(C)[nH]c2c1 [AMB639752] | micromolar |
| O=C1/C(=C\C=C\c2ccco2)SC(=S)N1NS(=O)(=O)c1ccccc1 [CU-3] | sub-micromolar |

Target: T1, DGKα
Experiment: Human DGKα kinase activity inhibition assay (ADP-Glo)
Format: biochemical
Set-up: made in house; host or cells: Sf9 insect cells, baculovirus
Conditions: in vitro, C-terminally FLAG-tagged recombinant full-length human DGKα, 1,2-dioleoyl-sn-glycerol substrate, ADP-Glo readout
Experimental: Human DGKα Kinase Activity Inhibition Assay. Human DGKα inhibitory activity of compounds of the present invention was quantified employing the human DGKα kinase activity assay as described in the following paragraphs. In essence, the enzyme activity was measured by quantification of the adenosine-di-phosphate (ADP) generated as a co-product of the enzyme reaction via the “ADP-Glo™ Kinase Assay” kit from the company Promega. This detection system works as follows: In a first step the ATP not consumed in the kinase reaction is quantitatively converted to […] (“ADP-Glo-reagent”), then the adenylate cyclase is stopped and the ADP generated in the kinase reaction converted to ATP, which subsequently generates in a luciferase-based reaction a glow-luminescence signal (“Kinase Detection Reagent”). C-terminally FLAG-tagged, recombinant full-length human DGKα (expressed in baculovirus infected insect cells, purified using anti-Flag pulldown and size exclusion chromatography as described below, DGKa_hu_1) was used as enzyme. As substrate for the kinase 1,2-dioleoyl-sn-glycerol, reconstituted in octyl-β-D-glucopyranoside micelles, was used. For the preparation of the micelles, 1 volume of a 16.1 mM solution of 1,2-dioleoyl-sn-glycerol (Avanti, Cat. #08001-25G) in chloroform was slowly evaporated using a nitrogen stream. Subsequently, 22.55 volumes of a 510 mM solution of octyl-β-D-glucopyranoside (Sigma-Aldrich, Cat. #08001-10G) in 50 mM MOPS buffer (pH 7.4) were added, and the mixture was sonicated in an ultrasonic bath for 20 s. Then 35 volumes of 50 mM MOPS buffer (pH 7.4) were added to yield a solution of 0.28 mM 1,2 dioleoyl-sn-glycerol and 200 mM octyl-β-D-glucopyranoside, which was aliquoted, flash-frozen in liquid nitrogen, and stored at −20° C. until use. For each experiment, a fresh aliquot was quickly thawed and diluted 24-fold with aqueous assay buffer (described below) containing 95.7 μM adenosine triphosphate (Promega) to yield a 1.67-fold concentrated substrate solution. For the assay 50 nl of a 100-fold concentrated solution of the test compound in dimethyl sulfoxide (DMSO, Sigma) was pipetted into either a white 1536-well or a white low-volume 384-well microtiter plate (both Greiner Bio-One, Frickenhausen, Germany). […] The concentration of DGK a was adjusted depending of the activity of the enzyme lot and was chosen appropriate to have the assay in the linear range, a typical concentration is about 0.1 nM. The reaction was stopped by the addition of 2.5 μl of “ADP-Glo-reagent” (1 to 1.5 diluted with water) and the resulting mixture was incubated at 22° C. for 1 h to convert the ATP no t consumed in the kinase reaction completely to […]. […] The amount of emitted light was taken as a measure for the amount of ADP generated and thereby for the activity of the DGKα.
Target sequence in this assay (P23743 with tags, fused parts or gaps): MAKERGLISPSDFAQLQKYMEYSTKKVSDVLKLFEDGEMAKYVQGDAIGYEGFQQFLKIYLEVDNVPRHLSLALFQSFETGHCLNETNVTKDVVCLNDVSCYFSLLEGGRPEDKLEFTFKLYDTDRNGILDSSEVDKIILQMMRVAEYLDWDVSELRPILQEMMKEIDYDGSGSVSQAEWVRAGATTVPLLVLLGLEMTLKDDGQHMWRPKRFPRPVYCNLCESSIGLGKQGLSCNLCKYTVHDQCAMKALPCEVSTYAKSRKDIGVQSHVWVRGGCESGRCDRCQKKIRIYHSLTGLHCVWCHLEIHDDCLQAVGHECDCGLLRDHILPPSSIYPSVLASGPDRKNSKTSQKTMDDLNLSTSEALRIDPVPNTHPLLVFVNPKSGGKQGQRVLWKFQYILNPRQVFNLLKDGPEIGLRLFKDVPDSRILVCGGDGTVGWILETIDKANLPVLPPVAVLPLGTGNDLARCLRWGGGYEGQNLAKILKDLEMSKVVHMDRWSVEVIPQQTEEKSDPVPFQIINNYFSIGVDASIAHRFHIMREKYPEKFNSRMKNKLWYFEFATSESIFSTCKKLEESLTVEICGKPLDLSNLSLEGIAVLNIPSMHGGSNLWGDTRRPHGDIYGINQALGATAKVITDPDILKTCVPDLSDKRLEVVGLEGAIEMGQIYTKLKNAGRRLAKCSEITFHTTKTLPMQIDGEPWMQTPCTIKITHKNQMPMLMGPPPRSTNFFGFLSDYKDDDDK

| SMILES | IC50 [nM] |
| --- | --- |
| Cn1c(=O)c(C#N)c(N2CCC3(CCN(c4cccc(OC(F)(F)F)c4)C3)CC2)c2ccccc21 [Example 12, 1-methyl-2-oxo-4-{2-[3-(trifluoromethoxy)phenyl]-2,8-diazaspiro[4.5]decan-8-yl}-1,2-dihydroquinoline-3-carbonitrile] | 50 |
| Cn1c(=O)c(C#N)c(N2CCC3(CCN(c4ccccc4)C3)CC2)c2ccccc21 [Example 1, 1-methyl-2-oxo-4-(2-phenyl-2,8-diazaspiro[4.5]decan-8-yl)-1,2-dihydroquinoline-3-carbonitrile] | 34 |
| COc1ccccc1N1CCC2(CCN(c3c(C#N)c(=O)n(C)c4ccccc34)CC2)C1 [Example 10, 4-[2-(2-methoxyphenyl)-2,8-diazaspiro[4.5]decan-8-yl]-1-methyl-2-oxo-1,2-dihydro-quinoline-3-carbonitrile] | 18 |
| CN1CCN(c2ccc3c(N4CCC5(CCN(c6cccc(OC(F)(F)F)c6)C5)CC4)c(C#N)c(=O)n(C)c3c2)CC1 [Example 31, 1-methyl-7-(4-methylpiperazin-1-yl)-2-oxo-4-{2-[3-(trifluoromethoxy)phenyl]-2,8-diazaspiro[4.5]decan-8-yl}-1,2-dihydroquinoline-3-carbonitrile] | 645 |
| Cn1c(=O)c(C(N)=O)c(N2CCC3(CN(c4ccc(Cl)cc4)C3)C2)c2ccccc21 [Example 26, 4-[2-(4-chlorophenyl)-2,6-diazaspiro[3.4]octan-6-yl]-1-methyl-2-oxo-1,2-dihydroquinoline-3-carboxamide] | 42 |
| COCCN(C)c1ccc2c(N3CCC4(CCN(c5cccc(OC(F)(F)F)c5)C4)CC3)c(C#N)c(=O)n(C)c2c1 [Example 32, 7-[(2-methoxyethyl)(methyl)amino]-1-methyl-2-oxo-4-{2-[3-(trifluoromethoxy)phenyl]-2,8-diazaspiro[4.5]decan-8-yl}-1,2-dihydroquinoline-3-carbonitrile] | 38 |
| Cn1c(=O)c(C#N)c(N2CC3(CCN(c4ccc(OC(F)(F)F)cc4)C3)C2)c2ccccc21 [Example 18, 1-methyl-2-oxo-4-{6-[4-(trifluoromethoxy)phenyl]-2,6-diazaspiro[3.4]octan-2-yl}-1,2-dihydroquinoline-3-carbonitrile] | 19 |
| Cn1c(=O)c(C#N)c(N2CCC3(CCN(c4ccc(F)cc4)C3)C2)c2ccccc21 (centres unmarked) [Example 23, 4-[7-(4-fluorophenyl)-2,7-diazaspiro[4.4]nonan-2-yl]-1-methyl-2-oxo-1,2-dihydro-quinoline-3-carbonitrile] | 532 |
| CN1CCN(c2ccc3c(N4CCC5(CCN(c6cccc(Cl)c6)C5)CC4)c(C#N)c(=O)n(C)c3c2)CC1 [Example 33, 4-[2-(3-chlorophenyl)-2,8-diazaspiro[4.5]decan-8-yl]-1-methyl-7-(4-methylpiperazin-1-yl)-2-oxo-1,2-dihydroquinoline-3-carbonitrile] | 1170 |
| Cn1c(=O)c(C(N)=O)c(N2CCC3(CCN(c4ccc(OC(F)(F)F)cc4)C3)CC2)c2ccccc21 [Example 25, 1-methyl-2-oxo-4-{2-[4-(trifluoromethoxy)phenyl]-2,8-diazaspiro[4.5]decan-8-yl}-1,2-dihydroquinoline-3-carboxamide] | 3 |
| COc1cccc(N2CC3(CCN(c4c(C#N)c(=O)n(C)c5ccccc45)C3)C2)c1 [Example 20, 4-[2-(3-methoxyphenyl)-2,6-diazaspiro[3.4]octan-6-yl]-1-methyl-2-oxo-1,2-dihydroquinoline-3-carbonitrile] | 155 |
| COc1ccc(N2CCC3(CCN(c4c(C#N)c(=O)n(C)c5ccccc45)CC3)C2)cc1 [Example 15, 4-[2-(4-methoxyphenyl)-2,8-diazaspiro[4.5]decan-8-yl]-1-methyl-2-oxo-1,2-dihydro-quinoline-3-carbonitrile] | 91 |
